Assays:
[1] = tested on: beta-amyloid (Aβ40, Aβ42) formation; assay: Beta-amyloid (Aβ40, Aβ42) formation, ELISA, in APP-transfected HeLa cells; type: cell-based, human; details: for inhibition at 1 µM / inhibition at 5 µg/mL: Homo sapiens, HeLa, read-out: inhibitory effect on the beta-amyloid; for inhibition of beta-amyloid (Aβ40, Aβ42) formation: HeLa-APP cells, various concentrations (FIGS. 1, 2, 6); for inhibition at 5 µg/mL: 5 μg/ml
Experimental: To test the inhibitory effect of Justicidin A (C1) obtained in Example 2 on the beta-amyloid formation, HeLa cell line transfected with the amyloid precursor protein (APP) driven from human was cultured in DMEM solution (Cat. #11995, Gibco, USA) for use. The cell line was received from Prof. Tae-Wan Kim at Department of Pathology, Columbia University Medical Center, New York, N.Y. 10032, USA.
Specifically, the Justicidin A of Example 2 was added into the cell line culture at the amount indicated in FIG. 1, and then the produced amount of be-amyloid (Aβ40, Aβ42 was measured. Human β-Amyloid[1-40](Aβ40), Human β-Amyloid [1-42](Aβ42) Colorimetric ELISA kit (#KHB3482 and #KHB3442; BioSource International, Inc., U.S.A.) were used to quantify two types of beta-amyloid (Aβ40, Aβ42).
The 5-methoxyJusticidin A (C2) of Example 2 was added into the cell line culture at the amount indicated in FIG. 2, and then the produced amount of be-amyloid was measured according to the method of Example 1.1. The group which was not treated with 5-methoxyjusticidin A was used as a negative control.
The compounds were used at the amount of FIG. 6, and measured for the beta-amyloid (Aβ40, Aβ42) formation according to the same method of Experimental Example <1-1>. The group treated with Justicidin A(C1) was a positive control and the group with no treatment was a negative control.

[2] = tested on: alpha-secretase product (sAPPα); assay: Alpha-secretase product (sAPPα) production, Western blotting; type: cell-based, human; details: 8 hours, concentrations of FIG. 5
Experimental: The test result confirmed that Justicidin A (C1) obtained in Example 2 and 5-methoxyJusticidin A increased alpha-secretase product (sAPPα). Specifically, the produced amount of sAPPα was measured by treating the cultured cell line (the HeLa cell line transfected with the amyloid precursor protein (APP) driven from human) with Justicidin A (S62-C1) or 5-methoxyJusticitdin A (S62-C2) at a concentration of FIG. 5, culturing it for 8 hours, and measuring the produced amount of sAPPα according to the Western blotting. The negative control was the group with no treatment of Justicidin A or 5-methoxyJusticidin A.

SMILES	inhibition at 1 µM [1] [%]	inhibition of beta-amyloid (Aβ40, Aβ42) formation [1]	other results
COc1c2c(cc3c(-c4ccc5c(c4)OCO5)c4c(cc13)C(=O)OC4)OCO2 [Justicidin G, reference compound]	~20	–	–
COc1c2c(c(-c3ccc4c(c3)OCO4)c3cc4c(cc13)OCO4)C(=O)OC2 [Justicidin F, reference compound]	~20	–	–
COc1cc2c(-c3ccc4c(c3)OCO4)c3c(c(OC)c2c(OC)c1OC)COC3=O [5-methoxyJusticidin A]	–	inhibited the beta-amyloid (Aβ40, Aβ42) formation at a concentration-dependent manner	formation of alpha-secretase product (sAPPα) [2]: activated the formation of alpha-secretase product (sAPPα)
COc1ccc(CC2COC(=O)/C2=C/c2ccc3c(c2)OCO3)cc1OC (stereo not drawn) [succilactone]	–	did not show nearly the inhibition	inhibition at 5 µg/mL [1]: ~10%
COc1ccc(-c2c3c(c(OC)c4cc5c(cc24)OCO5)C(=O)OC3)cc1OC [retrochinensinaphthol methyether, Retrochinensinaphthol methylether]	–	did not show nearly the inhibition	–
COc1ccc(-c2c3c(c(O)c4cc5c(cc24)OCO5)COC3=O)cc1OC [Chinensinaphthol]	–	–	inhibition at 5 µg/mL [1]: ~50%
COc1c2c(c(-c3ccc4c(c3)OCO4)c3cc4c(cc13)OCO4)COC2=O [Justicidin D, reference compound]	~20	–	–

Source: patent US9211278B2, “Composition containing arylnaphthalene lignan derivative for preventing and/or treating dementia” (KOREA INSTITUTE OF SCIENCE AND TECHNOLOGY, priority 2012, dated 2015)
